Laboratory results taken from patent US5767124A, “Polymorphic forms of a growth hormone secretagogue” (priority 1996, dated 1998).
“Also recorded” adds a separate entry of the source. Read-outs that look alike come from different tables or passages of the source.

How the values were obtained:
Assay type in all cases: physicochemical
[1] = Solubility of CBZ-sulfonamide 1 in toluene/n-PrOH mixtures by HPLC assay; settings: 0% toluene in n-PrOH
Experimental: The temperature of both the head and pot rose from 94° C. to 98° C. during the solvent switch. Toluene and n-PrOH form an azeotrope boiling at 97.2° C. composed of 47.5% toluene and 52.5% n-PrOH. The mixture was allowed to cool gradually to 20° C. over 3h and aged for 12 h. […] The solubility of the sulfonamide in various mixtures of toluene and n-PrOH has been determined by HPLC assay: […]

[2] = Thermal stability of neat compound (solid state, HPLC); settings: for thermal stability in words: neat solid; for remaining at 1008 h: 6 Wks; for remaining at 1008 h / remaining at 2856 h: read-out: % Inital; for remaining at 2856 h: 17 Wks; for remaining at 168 h: 1 Wk; for remaining at 336 h: 2 Wks; for remaining at 672 h: 4 Wks; for remaining at 4032 h: 24 Wks; for remaining at 1344 h: 8 Wks
Experimental: The solid state stability of neat compound was assessed by storage of the drug in glass screw-cap vials in the dark. Samples were assayed by HPLC and the parent compound was quantitatively analyzed. The isocratic method that was employed is outlined below:
Column: Beckman Ultrasphere ODS (250×4.6 mm, 5 μ)
Mobile Phase: 0.1% TEA, pH 4.0 with H3 PO4 :Acetonitrile (65:35)
Detection Wavelength: 228 nm
Column Temperature: Ambient
Injection Volume: 20 μL of N-[I(R)-[(1,2-dihydro-1-methanesulfonyl-spiro[3H-indole-3,4'-piperdin]-1'- yl)carbonyl]-2-(phenylmethyl-oxy)ethyl]-2-amino-2-methylpropanamide methanesulfonate (50 μg/mL)
The results shown below for Forms I and II were calculated as weight percent.

[3] = Hygroscopicity: storage of solid forms in constant relative humidity chambers; settings: for % Gain/Loss / change of sample on storage at high humidity (footnote): room temperature; for change of sample on storage at high humidity (footnote): Form II 48 hrs at 65-100% RH, Form I 96 hrs at 88 and 100% RH
Experimental: (§1) The total volatiles content (as established by TGA analysis) of solid samples of Forms I, II, III and IV upon exposure to various controlled humidities is tabulated below.
Hygroscopicity was assessed by storing the solid compound in constant relative humidity chambers. […] The results are tabulated below in Tables 1 and 2.

[4] = Solubility of Forms I and II in water, buffer, ethanol/water and isopropanol
Experimental: The solubility of Form I in distilled water at room temperature is >100 mg/mL. The aqueous solubility (RT) of Form II in buffered solutions (pH 4-9) is >100 mg/mL. The solubility of Form I in ethanol/water mixtures is shown below: […]

[5] = Total volatiles / water content (TGA) and water of hydration; settings: for moles of water per mole of compound: appears to be a hygroscopic hydrate
Source text: as §1

Bulk density = settings: compared with other forms
[6] = solid state, 40 °C, in the dark
[7] = solid state, 60 °C, in the dark
[8] = solid state, 80 °C, in the dark
[9] = 65% RH, 48 hrs, footnote a = sample becomes a gummy semisolid
[10] = 76% RH, 48 hrs, footnote a = sample becomes a gummy semisolid
[11] = 100% RH, 48 hrs, footnotes a = gummy semisolid, b = converts to Form IV upon exposure to ambient humidity
[12] = solid state, 40 °C, in the dark, read-out: % Initial
[13] = solid state, 60 °C, in the dark, read-out: % Initial
[14] = solid state, 80 °C, in the dark, read-out: % Initial

SMILES	thermal stability in words [2]	% Gain/Loss ([3]; 0% RH, 48 hrs)	% Gain/Loss ([3]; 11% RH, 48 hrs)	% Gain/Loss ([3]; 47% RH, 48 hrs)	% Gain/Loss [3, 9]	% Gain/Loss [3, 10]	% Gain/Loss [3, 11]	solubility in isopropanol [4]	water content (total volatiles by TGA) [5]	% Gain/Loss ([3]; 33% RH, 48 hrs)	moles of water per mole of compound [5]	hygroscopicity in words [3]	change of sample on storage at high humidity (footnote) [3]	further results
CS(=O)(=O)N1CC2(CCN(C(=O)OCc3ccccc3)CC2)c2ccccc21 [Form 1, CBZ-Spiroindoline-methanesulfonamide]														solubility of 1 [1]: 2.36 mg/mL
CC(C)(N)C(=O)N[C@H](COCc1ccccc1)C(=O)N1CCC2(CC1)CN(S(C)(=O)=O)c1ccccc12 [Form I, N-[1(R)-[(1,2-dihydro-1-methanesulfonylspiro[3H-indole-3,4'-piperdin]-1'-yl)carbonyl]-2-(phenylmethyloxy)ethyl]-2-amino-2-methylpropanamide methanesulfonate]	good thermal stability	-0.02%	-0.05%	+0.21%	+0.37%	+0.12%	> 12.0%	4.6 mg/niL	0.79 wt %			non-hygroscopic; also recorded: the wet crystals are very hygroscopic; also recorded: No substantial moisture increase is exhibited by Form I except when stored above 76% RH	deliquescent material	remaining at 1008 h [2, 6]: 100%; remaining at 2856 h [2, 6]: 98.7%; remaining at 1008 h [2, 7]: 101%; remaining at 2856 h [2, 7]: 101%; remaining at 1008 h [2, 8]: 101%; remaining at 2856 h [2, 8]: 99.4%; % Gain/Loss ([3]; 7% RH, 96 hrs): +0.4%; % Gain/Loss ([3]; 22% RH, 96 hrs): +0.3%; % Gain/Loss ([3]; 47% RH, 96 hrs): +0.5%; % Gain/Loss ([3]; 68% RH, 96 hrs): +0.6%; % Gain/Loss ([3]; 88% RH, 96 hrs, * = deliquescent material): +12.9%; % Gain/Loss ([3]; 100% RH, 96 hrs, * = deliquescent material): +23.9%; solubility ([4]; distilled water, water, room temperature, read-out: solubility in distilled water): > 100 mg/mL; solubility ([4]; ethanol/water 25/75, organic solvent or mixture, % Ethanol/H2O 25/75, read-out: Solubility in ethanol/water): > 100 mg/mL; solubility ([4]; ethanol/water 50/50, organic solvent or mixture, % Ethanol/H2O 50/50, read-out: Solubility in ethanol/water): > 100 mg/mL; solubility ([4]; ethanol/water 75/25, organic solvent or mixture, % Ethanol/H2O 75/25, read-out: Solubility in ethanol/water): > 90 mg/mL; solubility ([4]; organic solvent or mixture, 100% ethanol, read-out: Solubility in ethanol): > 90 mg/mL; water content in words [5]: relatively anhydrous
CC(C)(N)C(=O)N[C@H](COCc1ccccc1)C(=O)N1CCC2(CC1)CN(S(C)(=O)=O)c1ccccc12 [Form II, N-[1(R)-[(1,2-dihydro-1-methanesulfonylspiro[3H-indole-3,4'-piperdin]-1'-yl)carbonyl]-2-(phenylmethyloxy)ethyl]-2-amino-2-methylpropanamide methanesulfonate]	good thermal stability	+0.08%	+0.02%	+0.39%	> 10.0%	> 10.0%	> 10.0%	12.3 mg/mL	0.56 wt %	+0.33%		hygroscopic and exhibits a large increase in moisture starting at 65% RH	Sample becomes a gummy semisolid; also recorded: Converts to Form IV upon exposure to ambient humidity	% Initial ([2]; 80 °C, 12 Wks, in the dark, 120960 min): 100.4%; remaining at 168 h [2, 12]: 99.7%; remaining at 336 h [2, 12]: 101%; remaining at 672 h [2, 12]: 99.5%; remaining at 4032 h [2, 12]: 100%; remaining at 168 h [2, 13]: 99.4%; remaining at 336 h [2, 13]: 99.6%; remaining at 672 h [2, 13]: 100%; remaining at 1344 h [2, 13]: 100%; remaining at 2016 h ([2]; solid state, 60 °C, 12 Wks, in the dark, read-out: % Initial): 101%; remaining at 4032 h [2, 13]: 101%; remaining at 168 h [2, 14]: 99.2%; remaining at 336 h [2, 14]: 100%; remaining at 672 h [2, 14]: 99.2%; remaining at 1344 h [2, 14]: 99.8%; solubility ([4]; buffer ph 4-9, RT, pH 4-9, read-out: aqueous solubility in buffered solutions): > 100 mg/mL; solubility in IPA ([4]; crystalline material from EtOAc-EtOH): 12 mg/mL
CC(C)(N)C(=O)N[C@H](COCc1ccccc1)C(=O)N1CCC2(CC1)CN(S(C)(=O)=O)c1ccccc12 [Form III, N-[1(R)-[(1,2-dihydro-1-methanesulfonylspiro[3H-indole-3,4'-piperdin]-1'-yl)carbonyl]-2-(phenylmethyloxy)ethyl]-2-amino-2-methylpropanamide methanesulfonate]			-0.15%	+3.99%		+3.76%			4.5-5.0 wt %	+2.23%		shows an increase in moisture after 48-hr storage at 33% RH		

Second part, led by results:

thermal stability in words [2]	% Gain/Loss ([3]; 0% RH, 48 hrs)	% Gain/Loss ([3]; 11% RH, 48 hrs)	% Gain/Loss ([3]; 47% RH, 48 hrs)	% Gain/Loss [3, 9]	% Gain/Loss [3, 10]	% Gain/Loss [3, 11]	solubility in isopropanol [4]	water content (total volatiles by TGA) [5]	% Gain/Loss ([3]; 33% RH, 48 hrs)	moles of water per mole of compound [5]	SMILES	hygroscopicity in words [3]	change of sample on storage at high humidity (footnote) [3]	further results
	-7.8%	-4.9%	+0.7%		+1.5%	+5.3%		9.5-10.0 wt %	+0.3%	3.5 moles of water per mole	CC(C)(N)C(=O)N[C@H](COCc1ccccc1)C(=O)N1CCC2(CC1)CN(S(C)(=O)=O)c1ccccc12 [Form IV, N-[1(R)-[(1,2-dihydro-1-methanesulfonylspiro[3H-indole-3,4'-piperdin]-1'-yl)carbonyl]-2-(phenylmethyloxy)ethyl]-2-amino-2-methylpropanamide methanesulfonate]			bulk density (Bulk density): higher bulk density than other forms; % Gain/Loss ([3]; 66% RH, 48 hrs): +1.4%
										1 moles of water per mole	CC(C)(N)C(=O)N[C@H](COCc1ccccc1)C(=O)N1CCC2(CC1)CN(S(C)(=O)=O)c1ccccc12 [Form V, N-[1(R)-[(1,2-dihydro-1-methanesulfonylspiro[3H-indole-3,4'-piperdin]-1'-yl)carbonyl]-2-(phenylmethyloxy)ethyl]-2-amino-2-methylpropanamide methanesulfonate]	hygroscopic		
